Data reported in patent US9738932B2, “Biomarkers for cardiovascular side-effects induced by cox-2 inhibitory compounds” (FIRALIS SAS, priority 2005, dated 2017).

Test system: mRNA expression in cardiovascular tissues
Conditions: cynomolgus monkey, in vivo, 2 weeks

Cc1ccc(-c2cc(C(F)(F)F)nn2-c2ccc(S(N)(=O)=O)cc2)cc1 [Celebrex]
CYP1B1 (202436_s_at) avg fold change vs control: 1.0 fold | CYP3A5 (214234_s_at) avg fold change vs control: 1.3 fold | CYP11B1 (214630_at) avg fold change vs control: 1.1 fold | ECM1 (209365_s_at) avg fold change vs control: 0.9 fold | F2RL1 (206429_at) avg fold change vs control: 1.1 fold | F13A1 (203305_at) avg fold change vs control: 0.9 fold | FCGR1A (214511_x_at) avg fold change vs control: 1.1 fold | G1P2 (205483_s_at) avg fold change vs control: 1.4 fold | HCA127 (220040_x_at) avg fold change vs control: 1.0 fold | HCK (208018_s_at) avg fold change vs control: 1.4 fold | HFE (210864_x_at) avg fold change vs control: 1.1 fold | HFE (211329_x_at) avg fold change vs control: 0.7 fold | HFE (211332_x_at) avg fold change vs control: 0.8 fold | HFE (211863_x_at) avg fold change vs control: 0.9 fold | HFE (211866_x_at) avg fold change vs control: 0.9 fold | HHL (203020_at) avg fold change vs control: 1.4 fold | HLA-A (211528_x_at) avg fold change vs control: 1.1 fold | HLA-A (211529_x_at) avg fold change vs control: 1.2 fold | HLA-A (211530_x_at) avg fold change vs control: 1.5 fold | HLA-A (215313_x_at) avg fold change vs control: 1.2 fold | HLA-B (208729_x_at) avg fold change vs control: 1.1 fold | HLA-B (209140_x_at) avg fold change vs control: 1.1 fold | HLA-B (211911_x_at) avg fold change vs control: 1.2 fold | HLA-C (208812_x_at) avg fold change vs control: 1.2 fold | HLA-C (214459_x_at) avg fold change vs control: 1.3 fold | HLA-C (216526_x_at) avg fold change vs control: 1.2 fold | HLA-DMB (203932_at) avg fold change vs control: 1.4 fold | HLA-DQA1 (212671_s_at) avg fold change vs control: 2.1 fold | HLA-DQB1 (209823_x_at) avg fold change vs control: 2.0 fold | HLA-DQB1 (211654_x_at) avg fold change vs control: 2.0 fold | HLA-DQB2 (212998_x_at) avg fold change vs control: 1.9 fold | HLA-DRA (208894_at) avg fold change vs control: 1.3 fold | HLA-DRA (210982_s_at) avg fold change vs control: 1.5 fold | HLA-DRB3 (209312_x_at) avg fold change vs control: 1.5 fold | HLA-DRB6 (217362_x_at) avg fold change vs control: 1.4 fold | HLA-E (200905_x_at) avg fold change vs control: 1.1 fold | HLA-E (217456_x_at) avg fold change vs control: 1.2 fold | HLA-F (204806_x_at) avg fold change vs control: 1.2 fold | HLA-F (221875_x_at) avg fold change vs control: 1.0 fold | ICAM1 (202638_s_at) avg fold change vs control: 0.8 fold | ICAM1 (215485_s_at) avg fold change vs control: 1.1 fold | ICSBP1 (204057_at) avg fold change vs control: 1.6 fold | IFI27 (202411_at) avg fold change vs control: 3.3 fold | IFI30 (201422_at) avg fold change vs control: 1.3 fold | IFI44 (214453_s_at) avg fold change vs control: 1.3 fold | IFIT1 (203153_at) avg fold change vs control: 0.8 fold | IFIT2 (217502_at) avg fold change vs control: 1.1 fold | IFIT4 (204747_at) avg fold change vs control: 0.8 fold | IFITM2 (201315_x_at) avg fold change vs control: 1.0 fold | IFITM3 (212203_x_at) avg fold change vs control: 1.1 fold | IGF1 (209541_at) avg fold change vs control: 0.9 fold | IGFBP4 (201508_at) avg fold change vs control: 0.6 fold | IL1A (208200_at) avg fold change vs control: 0.4 fold | IL2RG (204116_at) avg fold change vs control: 3.8 fold | IL27RA (205926_at) avg fold change vs control: 1.1 fold | INDO (210029_at) avg fold change vs control: 1.6 fold | INPP5D (203332_s_at) avg fold change vs control: 1.6 fold | ITGB2 (202803_s_at) avg fold change vs control: 1.1 fold | JAK1 (214377_s_at) avg fold change vs control: 0.9 fold | KLKB1 (206541_at) avg fold change vs control: 1.1 fold | LCK (204890_s_at) avg fold change vs control: 3.2 fold | LCP2 (205270_s_at) avg fold change vs control: 1.9 fold | LILRB1 (207857_at) avg fold change vs control: 1.0 fold | LILRB1 (211100_x_at) avg fold change vs control: 1.4 fold | LILRB3 (208594_x_at) avg fold change vs control: 1.1 fold | LILRB3 (210225_x_at) avg fold change vs control: 1.3 fold | LY86 (205859_at) avg fold change vs control: 1.5 fold | LY96 (206584_at) avg fold change vs control: 1.4 fold | LYN (210754_s_at) avg fold change vs control: 1.5 fold | MAF (209348_s_at) avg fold change vs control: 1.3 fold | PCOLCE (202465_at) avg fold change vs control: 0.7 fold | PLCL2 (216217_at) avg fold change vs control: 1.0 fold | PLSCR1 (202446_s_at) avg fold change vs control: 1.1 fold | PRC1 (218009_s_at) avg fold change vs control: 1.1 fold | PRG1 (201858_s_at) avg fold change vs control: 1.0 fold | PRG1 (201859_at) avg fold change vs control: 1.2 fold | PTPN22 (206060_s_at) avg fold change vs control: 2.5 fold | PTPRC (207238_s_at) avg fold change vs control: 2.5 fold | SOCS3 (206360_s_at) avg fold change vs control: 0.9 fold | STAT1 (209969_s_at) avg fold change vs control: 2.7 fold | STAT1 (AFFX-HUMISGF3A/M97935_5_at) avg fold change vs control: 0.9 fold | STAT1 (AFFX-HUMISGF3A/M97935_MA_at) avg fold change vs control: 1.3 fold | STAT1 (AFFX-HUMISGF3A/M97935_MB_at) avg fold change vs control: 1.2 fold | TAPBP (208829_at) avg fold change vs control: 1.1 fold | TCTEL1 (201999_s_at) avg fold change vs control: 1.0 fold | TLR1 (210176_at) avg fold change vs control: 1.3 fold | TLR2 (204924_at) avg fold change vs control: 0.8 fold | TNFAIP3 (202643_s_at) avg fold change vs control: 1.5 fold | TNFAIP3 (202644_s_at) avg fold change vs control: 1.7 fold | TNFSF6 (210865_at) avg fold change vs control: 1.4 fold | TRGC2 (211144_x_at) avg fold change vs control: 1.2 fold | TRGC2 (216920_s_at) avg fold change vs control: 1.6 fold | VCAM1 (203868_s_at) avg fold change vs control: 1.9 fold | XCL1 (206366_x_at) avg fold change vs control: 2.0 fold | XCL1 (214567_s_at) avg fold change vs control: 3.5 fold | XLKD1 (219059_s_at) avg fold change vs control: 1.5 fold | cig5 (213797_at) avg fold change vs control: 1.3 fold
